This is an account of results in patent US8623869B2, “Compounds useful as inhibitors of ATR kinase” (Vertex Pharmaceuticals Incorporated, priority 2010, dated 2014).

A value given as a limit tells only on which side of the number the result lay.

The experiment has as its target T1, full-length ATR (Homo sapiens, UniProt Q13535).
T1 construct: Assays were carried out at 25° C. in the presence of 5 nM full-length ATR
The experiment can be described thus: ATR Inhibition Assay (radioactive-phosphate incorporation). The format is biochemical. The following applies: Ki(app); 5 nM full-length ATR, 10 μM ATP, 800 μM target peptide, 25° C. The procedure: Compounds were screened for their ability to inhibit ATR kinase using a radioactive-phosphate incorporation assay. Assays were carried out in a mixture of 50 mM Tris/HCl (pH 7.5), 10 mM MgCl2 and 1 mM DTT. Final substrate concentrations were 10 μM [γ-33P]ATP (3mCi 33P ATP/mmol ATP, Perkin Elmer) and 800 μM target peptide (ASELPASQPQPFSAKKK).
Assays were carried out at 25° C. in the presence of 5 nM full-length ATR. An assay stock buffer solution was prepared containing all of the reagents listed above, with the exception of ATP and the test compound of interest. 13.5 μL of the stock solution was placed in a 96 well plate followed by addition of 2 μL of DMSO stock containing serial dilutions of the test compound (typically starting from a final concentration of 15 μM with 3-fold serial dilutions) in duplicate (final DMSO concentration 7%). The plate was pre-incubated for 10 minutes at 25° C. and the reaction initiated by addition of 15 μL [γ-33P]ATP (final concentration 10 μM).
The reaction was stopped after […] by the addition of 30 μL 0.1M phosphoric acid containing 2 mM ATP. A multiscreen phosphocellulose filter 96-well plate (Millipore, Cat no. MAPHN0B50) was pretreated with 100 μL 0.2M phosphoric acid prior to the addition of 45 μL of the stopped assay mixture. The plate was washed with 5×200 μL 0.2M phosphoric acid. After drying, 100 μL Optiphase ‘SuperMix’ liquid scintillation cocktail (Perkin Elmer) was added to the well prior to scintillation counting (1450 Microbeta Liquid Scintillation Counter, Wallac).
After removing mean background values for all of the data points, Ki(app) data were calculated from non-linear regression analysis of the initial rate data using the Prism software package (GraphPad Prism version 3.0cx for Macintosh, GraphPad Software, San Diego Calif., USA).

T1 sequence (Q13535 whole entry): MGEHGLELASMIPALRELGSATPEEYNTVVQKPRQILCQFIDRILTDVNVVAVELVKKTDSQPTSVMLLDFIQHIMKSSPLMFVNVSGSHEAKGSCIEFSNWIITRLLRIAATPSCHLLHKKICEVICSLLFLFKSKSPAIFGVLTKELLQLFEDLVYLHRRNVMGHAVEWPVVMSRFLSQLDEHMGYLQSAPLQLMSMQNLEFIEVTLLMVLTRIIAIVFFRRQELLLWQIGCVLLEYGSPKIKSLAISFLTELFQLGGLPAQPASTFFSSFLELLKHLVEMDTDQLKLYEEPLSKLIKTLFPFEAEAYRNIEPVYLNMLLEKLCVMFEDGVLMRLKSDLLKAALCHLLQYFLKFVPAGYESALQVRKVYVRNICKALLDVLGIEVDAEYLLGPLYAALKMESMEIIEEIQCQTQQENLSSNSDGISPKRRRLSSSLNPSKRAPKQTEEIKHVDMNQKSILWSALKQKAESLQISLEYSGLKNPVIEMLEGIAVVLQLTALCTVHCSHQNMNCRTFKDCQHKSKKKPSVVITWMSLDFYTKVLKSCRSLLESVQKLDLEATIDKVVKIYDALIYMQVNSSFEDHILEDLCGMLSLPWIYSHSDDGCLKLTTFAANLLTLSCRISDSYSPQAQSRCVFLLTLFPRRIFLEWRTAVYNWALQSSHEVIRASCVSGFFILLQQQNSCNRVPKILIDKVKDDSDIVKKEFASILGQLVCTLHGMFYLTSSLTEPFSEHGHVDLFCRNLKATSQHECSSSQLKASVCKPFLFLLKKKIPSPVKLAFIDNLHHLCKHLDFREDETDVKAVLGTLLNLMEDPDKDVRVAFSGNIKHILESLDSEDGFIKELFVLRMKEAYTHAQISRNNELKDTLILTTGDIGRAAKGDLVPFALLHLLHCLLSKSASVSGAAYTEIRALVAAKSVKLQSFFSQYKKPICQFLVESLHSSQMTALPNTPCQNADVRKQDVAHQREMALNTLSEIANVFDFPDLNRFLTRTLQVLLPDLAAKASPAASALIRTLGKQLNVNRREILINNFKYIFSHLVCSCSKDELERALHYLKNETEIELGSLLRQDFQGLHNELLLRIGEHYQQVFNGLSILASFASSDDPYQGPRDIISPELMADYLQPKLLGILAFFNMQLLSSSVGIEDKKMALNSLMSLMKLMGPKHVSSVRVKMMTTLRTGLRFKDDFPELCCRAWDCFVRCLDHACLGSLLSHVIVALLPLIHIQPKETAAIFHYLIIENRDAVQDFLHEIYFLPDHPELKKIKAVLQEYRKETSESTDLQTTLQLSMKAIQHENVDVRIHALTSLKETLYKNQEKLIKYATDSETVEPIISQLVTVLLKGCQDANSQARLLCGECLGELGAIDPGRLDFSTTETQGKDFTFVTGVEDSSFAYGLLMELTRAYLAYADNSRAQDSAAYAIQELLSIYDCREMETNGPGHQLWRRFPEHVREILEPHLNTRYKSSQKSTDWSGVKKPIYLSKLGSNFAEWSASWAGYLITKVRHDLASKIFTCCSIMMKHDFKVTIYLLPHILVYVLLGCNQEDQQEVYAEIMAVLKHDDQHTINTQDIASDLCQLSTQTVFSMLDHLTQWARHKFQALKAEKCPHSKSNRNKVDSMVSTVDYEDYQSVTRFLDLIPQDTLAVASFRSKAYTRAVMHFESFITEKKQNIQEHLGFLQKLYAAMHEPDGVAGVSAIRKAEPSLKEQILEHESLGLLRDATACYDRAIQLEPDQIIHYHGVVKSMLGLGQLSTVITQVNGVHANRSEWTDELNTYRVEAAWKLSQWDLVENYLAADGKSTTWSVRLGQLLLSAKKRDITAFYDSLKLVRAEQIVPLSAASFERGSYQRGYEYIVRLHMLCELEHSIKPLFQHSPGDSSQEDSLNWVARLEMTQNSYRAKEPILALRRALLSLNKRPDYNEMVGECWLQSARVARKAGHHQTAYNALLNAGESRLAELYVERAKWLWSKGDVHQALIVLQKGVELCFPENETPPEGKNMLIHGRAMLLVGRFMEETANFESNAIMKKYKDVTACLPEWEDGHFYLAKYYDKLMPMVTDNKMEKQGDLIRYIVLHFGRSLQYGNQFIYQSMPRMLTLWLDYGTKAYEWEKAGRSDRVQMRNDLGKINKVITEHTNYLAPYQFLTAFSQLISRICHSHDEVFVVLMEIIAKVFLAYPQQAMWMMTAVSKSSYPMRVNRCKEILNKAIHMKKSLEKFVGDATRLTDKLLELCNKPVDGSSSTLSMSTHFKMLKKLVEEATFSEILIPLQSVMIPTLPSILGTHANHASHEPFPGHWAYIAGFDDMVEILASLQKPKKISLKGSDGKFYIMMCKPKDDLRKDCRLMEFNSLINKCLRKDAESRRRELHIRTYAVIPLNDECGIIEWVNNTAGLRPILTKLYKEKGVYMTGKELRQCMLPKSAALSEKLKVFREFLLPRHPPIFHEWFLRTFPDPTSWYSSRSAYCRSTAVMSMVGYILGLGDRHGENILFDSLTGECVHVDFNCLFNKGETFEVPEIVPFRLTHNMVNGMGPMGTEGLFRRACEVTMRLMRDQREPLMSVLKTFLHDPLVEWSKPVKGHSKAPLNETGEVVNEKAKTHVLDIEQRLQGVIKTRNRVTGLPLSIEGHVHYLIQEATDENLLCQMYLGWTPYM

As to `CC(C)S(=O)(=O)c1ccc(-c2cnc3[nH]cc(-c4ccccc4C(N)=O)c3n2)cc1` [Compound I-18, 2-[2-(4-isopropylsulfonylphenyl)-5H-pyrrolo[2,3-b]pyrazin-7-yl]benzamide], the Ki is > 50 nM. On to `CC(C)S(=O)(=O)c1ccc(-c2cnc3[nH]cc(-c4ccc(N)nc4)c3n2)cc1` [Compound I-53, 5-[2-(4-isopropylsulfonylphenyl)-5H-pyrrolo[2,3-b]pyrazin-7-yl]pyridin-2-amine], for which the Ki was ≤ 10 nM. Turning to `CC(C)S(=O)(=O)c1ccc(-c2cnc3[nH]cc(C#Cc4ccccc4)c3n2)cc1` [Compound I-2, 2-(4-Isopropylsulfonylphenyl)-7-(2-phenylethynyl)-5H-pyrrolo[2,3-b]pyrazine], the Ki lay within 10 to 50 nM.

For the molecule `COc1ccccc1-c1c[nH]c2ncc(-c3ccc(S(=O)(=O)C(C)C)cc3)nc12` [Compound I-15, 2-(4-isopropylsulfonylphenyl)-7-(2-methoxyphenyl)-5H-pyrrolo[2,3-b]pyrazine], the Ki was > 50 nM. To `CC(C)S(=O)(=O)c1ccc(-c2cnc3[nH]cc(-c4ccncc4)c3n2)cc1` [Compound I-10, 2-(4-isopropylsulfonylphenyl)-7-(4-pyridyl)-5H-pyrrolo[2,3-b]pyrazine] belongs 10 to 50 nM; to `Cc1ccc(-c2c[nH]c3ncc(-c4ccc(S(=O)(=O)C(C)C)cc4)nc23)s1` [Compound I-26, 2-(4-isopropylsulfonylphenyl)-7-(5-methyl-2-thienyl)-5H-pyrrolo[2,3-b]pyrazine], 10 to 50 nM. Take `CC(C)S(=O)(=O)c1ccc(-c2cnc3[nH]cc(-c4cc5ccccc5s4)c3n2)cc1` [Compound I-45, 7-(benzothiophen-2-yl)-2-(4-isopropylsulfonylphenyl)-5H-pyrrolo[2,3-b]pyrazine]: the Ki lay in the range of 10 to 50 nM. Take `CC(C)S(=O)(=O)c1ccc(-c2cnc3[nH]cc(-c4ccc5[nH]ccc5c4)c3n2)cc1` [Compound I-35, 7-(1H-indol-5-yl)-2-(4-isopropylsulfonylphenyl)-5H-pyrrolo[2,3-b]pyrazine]: the Ki lay within 10 to 50 nM. To `CC(C)S(=O)(=O)c1ccc(-c2cnc3[nH]cc(-c4cscc4C#N)c3n2)cc1` [Compound I-21, 4-[2-(4-isopropylsulfonylphenyl)-5H-pyrrolo[2,3-b]pyrazin-7-yl]thiophene-3-carbonitrile] belongs > 50 nM; to `CC(C)S(=O)(=O)c1ccc(-c2cnc3[nH]cc(-c4ccn(C)n4)c3n2)cc1` [Compound I-49, 2-(4-isopropylsulfonylphenyl)-7-(1-methylpyrazol-3-yl)-5H-pyrrolo[2,3-b]pyrazine], 10 to 50 nM. In the case of `COc1ccc(-c2c[nH]c3ncc(-c4ccc(S(=O)(=O)C(C)C)cc4)nc23)cc1` [Compound I-29, 2-(4-isopropylsulfonylphenyl)-7-(4-methoxyphenyl)-5H-pyrrolo[2,3-b]pyrazine], the Ki is > 50 nM. With `COc1ncc(-c2c[nH]c3ncc(-c4ccc(S(=O)(=O)C(C)C)cc4)nc23)cc1C` [Compound I-38, 2-(4-isopropylsulfonylphenyl)-7-(6-methoxy-5-methyl-3-pyridyl)-5H-pyrrolo[2,3-b]pyrazine] the figure was 10 to 50 nM; with `CC(C)S(=O)(=O)c1ccc(-c2cnc3[nH]cc(-c4cnc(N)nc4)c3n2)cc1` [Compound I-13, 5-[2-(4-isopropylsulfonylphenyl)-5H-pyrrolo[2,3-b]pyrazin-7-yl]pyrimidin-2-amine], ≤ 10 nM; with `CC(C)S(=O)(=O)c1ccc(-c2cnc3[nH]cc(-c4cc5ccccc5o4)c3n2)cc1` [Compound I-36, 7-(benzofuran-2-yl)-2-(4-isopropylsulfonylphenyl)-5H-pyrrolo[2,3-b]pyrazine], 10 to 50 nM. Regarding `CC(C)S(=O)(=O)c1ccc(-c2cnc3[nH]cc(-c4ccccc4O)c3n2)cc1` [Compound I-14, 2-[2-(4-isopropylsulfonylphenyl)-5H-pyrrolo[2,3-b]pyrazin-7-yl]phenol], the Ki is 10 to 50 nM.

Turning to `CC(C)S(=O)(=O)c1ccc(-c2cnc3[nH]cc(-c4cn[nH]c4)c3n2)cc1` [Compound I-47, 2-(4-(isopropylsulfonyl)phenyl)-7-(1H-pyrazol-4-yl)-5H-pyrrolo[2,3-b]pyrazine], the Ki was 10 to 50 nM. `CC(C)S(=O)(=O)c1ccc(-c2cnc3[nH]cc(-c4cccnc4)c3n2)cc1` [Compound I-1, 2-(4-Isopropylsulfonylphenyl)-7-(3-pyridyl)-5H-pyrrolo[2,3-b]pyrazine]: the Ki is 10 to 50 nM. To `COc1ccc(-c2c[nH]c3ncc(-c4ccc(S(=O)(=O)C(C)C)cc4)nc23)cn1` [Compound I-31, 2-(4-isopropylsulfonylphenyl)-7-(6-methoxy-3-pyridyl)-5H-pyrrolo[2,3-b]pyrazine] belongs > 50 nM. To `CC(C)S(=O)(=O)c1ccc(-c2cnc3[nH]cc(-c4sccc4C(=O)O)c3n2)cc1` [Compound I-63, 2-[2-(4-isopropylsulfonylphenyl)-5H-pyrrolo[2,3-b]pyrazin-7-yl]thiophene-3-carboxylic acid] belongs 10 to 50 nM; to `CC(C)S(=O)(=O)c1ccc(-c2cnc3[nH]cc(-c4cnn(C)c4)c3n2)cc1` [Compound I-50, 2-(4-isopropylsulfonylphenyl)-7-(1-methylpyrazol-4-yl)-5H-pyrrolo[2,3-b]pyrazine], > 50 nM. To `CC(C)S(=O)(=O)c1ccc(-c2cnc3[nH]cc(-c4ccsc4)c3n2)cc1` [Compound I-22, 2-(4-isopropylsulfonylphenyl)-7-(3-thienyl)-5H-pyrrolo[2,3-b]pyrazine] belongs 10 to 50 nM; to `COc1ncc(-c2c[nH]c3ncc(-c4ccc(S(=O)(=O)C(C)C)cc4)nc23)cn1` [Compound I-34, 2-(4-isopropylsulfonylphenyl)-7-(2-methoxypyrimidin-5-yl)-5H-pyrrolo[2,3-b]pyrazine], 10 to 50 nM; to `CC(C)S(=O)(=O)c1ccc(-c2cnc3[nH]cc(-c4cncc(C(C)(C)O)c4)c3n2)cc1` [Compound I-66, 2-[5-[2-(4-isopropylsulfonylphenyl)-5H-pyrrolo[2,3-b]pyrazin-7-yl]-3-pyridyl]propan-2-ol], ≤ 10 nM. As for `COc1ncc(-c2c[nH]c3ncc(-c4ccc(S(=O)(=O)C(C)C)cc4)nc23)c(OC)n1` [Compound I-46, 7-(2,4-dimethoxypyrimidin-5-yl)-2-(4-isopropylsulfonylphenyl)-5H-pyrrolo[2,3-b]pyrazine], the Ki is > 50 nM. With `CC(C)S(=O)(=O)c1ccc(-c2cnc3[nH]cc(-c4cccnc4F)c3n2)cc1` [Compound I-24, 7-(2-fluoro-3-pyridyl)-2-(4-isopropylsulfonylphenyl)-5H-pyrrolo[2,3-b]pyrazine] the figure was ≤ 10 nM; with `CC(C)S(=O)(=O)c1ccc(-c2cnc3[nH]cc(-c4cccc(-c5nnn[nH]5)c4)c3n2)cc1` [Compound I-68, 2-(4-isopropylsulfonylphenyl)-7-[3-(1H-tetrazol-5-yl)phenyl]-5H-pyrrolo[2,3-b]pyrazine], 10 to 50 nM; with `CC(C)S(=O)(=O)c1ccc(-c2cnc3[nH]cc(-c4ccccc4CO)c3n2)cc1` [Compound I-16, [2-[2-(4-isopropylsulfonylphenyl)-5H-pyrrolo[2,3-b]pyrazin-7-yl]phenyl]methanol], > 50 nM.
